What was measured:
panel of 442 kinases [1] = target: T1, panel of 442 kinases (Homo sapiens, UniProt Q6XUX3); type: binding; details: Compound Concentration 10 µM
T1 construct: purchased KINOMEscan
T1 sequence (Q6XUX3 1-929): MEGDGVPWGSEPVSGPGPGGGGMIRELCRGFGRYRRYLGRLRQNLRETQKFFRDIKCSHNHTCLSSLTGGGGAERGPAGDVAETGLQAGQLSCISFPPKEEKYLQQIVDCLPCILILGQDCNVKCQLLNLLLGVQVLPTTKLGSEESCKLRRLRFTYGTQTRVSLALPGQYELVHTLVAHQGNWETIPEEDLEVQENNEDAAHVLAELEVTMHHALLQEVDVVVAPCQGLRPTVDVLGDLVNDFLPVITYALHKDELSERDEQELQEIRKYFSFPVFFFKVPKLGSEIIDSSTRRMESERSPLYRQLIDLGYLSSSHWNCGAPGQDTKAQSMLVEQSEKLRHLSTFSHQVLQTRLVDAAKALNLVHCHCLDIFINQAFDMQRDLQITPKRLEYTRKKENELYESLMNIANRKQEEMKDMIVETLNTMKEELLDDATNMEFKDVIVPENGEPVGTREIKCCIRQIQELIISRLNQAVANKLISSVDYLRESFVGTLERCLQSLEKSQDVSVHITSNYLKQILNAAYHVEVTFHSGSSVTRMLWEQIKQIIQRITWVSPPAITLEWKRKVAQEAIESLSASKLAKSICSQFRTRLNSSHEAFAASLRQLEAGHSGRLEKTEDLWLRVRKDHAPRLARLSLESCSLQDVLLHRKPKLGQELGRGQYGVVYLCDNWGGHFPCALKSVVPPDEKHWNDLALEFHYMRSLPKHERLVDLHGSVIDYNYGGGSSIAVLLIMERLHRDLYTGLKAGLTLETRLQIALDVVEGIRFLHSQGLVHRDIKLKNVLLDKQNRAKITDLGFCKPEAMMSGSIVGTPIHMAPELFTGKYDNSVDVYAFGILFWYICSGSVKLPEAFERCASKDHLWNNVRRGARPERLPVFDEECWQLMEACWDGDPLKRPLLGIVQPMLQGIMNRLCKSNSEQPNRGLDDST
From the text: (§1) We assessed the selectivity of members of this scaffold using the KINOMEscan methodology across a near comprehensive panel of 442 kinases [[18,27]].

panel of 442 kinases [2] = target: T2, panel of 442 kinases (Homo sapiens, UniProt Q92630); type: binding; details: Compound Concentration 10 µM
T2 construct: purchased KINOMEscan
T2 sequence (Q92630 1-601): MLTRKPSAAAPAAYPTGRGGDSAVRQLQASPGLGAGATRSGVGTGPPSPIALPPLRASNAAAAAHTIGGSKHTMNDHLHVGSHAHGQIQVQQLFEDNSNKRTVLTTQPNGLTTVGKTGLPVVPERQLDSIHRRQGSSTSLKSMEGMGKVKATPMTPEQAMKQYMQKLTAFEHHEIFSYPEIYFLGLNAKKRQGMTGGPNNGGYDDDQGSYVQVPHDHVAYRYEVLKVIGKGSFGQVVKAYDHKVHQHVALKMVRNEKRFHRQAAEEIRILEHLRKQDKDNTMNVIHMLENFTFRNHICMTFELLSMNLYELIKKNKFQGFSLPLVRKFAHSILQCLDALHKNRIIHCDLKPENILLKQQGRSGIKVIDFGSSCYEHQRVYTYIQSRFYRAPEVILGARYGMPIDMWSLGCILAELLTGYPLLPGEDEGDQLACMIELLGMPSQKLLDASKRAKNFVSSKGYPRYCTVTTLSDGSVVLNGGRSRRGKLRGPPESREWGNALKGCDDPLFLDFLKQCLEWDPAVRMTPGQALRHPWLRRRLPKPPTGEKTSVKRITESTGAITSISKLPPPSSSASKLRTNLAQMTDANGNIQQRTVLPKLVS
From the text: as §1

Q: Which “KINOMEscan: RIPK5” value (panel of 442 kinases [1]) does the source give for `COc1cc(C(=O)N2CCC(N3CCN(C)CC3)CC2)ccc1Nc1ncc2c(n1)N1CCc3cccc(c31)C(=O)N2C` [Compound 24] here?
A: 24

Q: And the “KINOMEscan: DYRK2” value (panel of 442 kinases [2])?
A: 82

Q: `CCOc1cc(C(=O)N2CCC(N3CCN(C)CC3)CC2)ccc1Nc1ncc2c(n1)N(C1CCCC1)c1ccccc1C(=O)N2C` [Compound 26] was tested. Which “KINOMEscan: RIPK5” value (panel of 442 kinases [1]) did it give?
A: 16

Q: And the “KINOMEscan: DYRK2” value (panel of 442 kinases [2])?
A: 100

Q: What does the source list for `COc1cc(C(=O)N2CCC(N3CCN(C)CC3)CC2)ccc1Nc1ncc2c(n1)N(C1CCCC1)c1ccccc1C(=O)N2C` [Compound 25, 11-cyclopentyl-2-((2-methoxy-4-(4-(4-methylpiperazin-1-yl)piperidine-1-carbonyl)phenyl)amino)-5-methyl-5H-benzo[e]pyrimido[5,4-b][1,4]diazepin-6(11H)-one]?
A: KINOMEscan: RIPK5 (panel of 442 kinases [1]): 4.9; KINOMEscan: DYRK2 (panel of 442 kinases [2]): 100

Q: `COc1cc(C(=O)N2CCC(N3CCN(C)CC3)CC2)ccc1Nc1ncc2c(n1)N(C)c1ccccc1C(=O)N2C` [15 (LRRK2-IN-1)] was tested. Which “KINOMEscan: RIPK5” value (panel of 442 kinases [1]) did it give?
A: 16

Q: What about the “KINOMEscan: DYRK2” value (panel of 442 kinases [2]) of the same molecule?
A: 76

Reference: PMC3914206
